Tests used:
Format in all cases: physicochemical
[1] = Slurry of Form B in water at about 80° C., solid analysed with XRD; details: water slurry at about 80° C. for about 1 hour, filtered at 80° C.
Protocol: (§1) All PXRD data reported herein are obtained using a Bruker AXS D8 Advance Powder X-ray Diffractometer or a PANalytical X-ray Diffractometer, using copper Kα radiation wavelength 1.5418 Å.
Suvorexant Form B (500 mg) and water (10 ml) were introduced in round bottom flask. The heterogeneous mixture so obtained was slurried with stirring at about 80° C. for about 1 hour and the solid substance was then filtered under vacuum at 80° C. The filtered solid was analyzed after 1 hour and 4 hours. The solid obtained after 1 hour and 4 hours were Form B up on analysis with XRD.

[2] = Slurry of Form B in water at about room temperature, solid analysed with XRD
Protocol: as §1
Suvorexant Form B (500 mg) and water (10 ml) were introduced in round bottom flask. The heterogeneous mixture so obtained was slurried with stirring at about room temperature for about 1 hour. The heterogeneous mixture was divided in to two parts. The first part was filtered under vacuum. The filtered solid was analyzed after 2 hour and 4 hours. The solid obtained after 2 hour and 4 hours were Form B up on analysis with XRD. The second part was stirred over night at room temperature and then filtered under vacuum. The solid obtained from second part was Form B up on analysis with XRD.

[3] = Slurrying of Form A in solvents (Examples 26 to 38); details: slurrying in few solvents (Examples 26 to 38), 27° C., 17-24 hours
Protocol: Suvorexant Form-A (500 mg) and methanol (20 ml) were introduced in 100 ml round bottom flask. The heterogeneous mixture so obtained was stirred at 27° C. for 17 hours and the solid substance was then filtered under vacuum. The product was dried at 60° C. in air tray drier to obtain Form B.
The process of example 26 was repeated wherein methanol was replaced by following solvents to obtain Form B: […]

Structure (SMILES) | polymorphic form of the solid up on analysis with XRD ([1]; filtered solid analyzed after 1 hour) | polymorphic form of the solid up on analysis with XRD ([1]; filtered solid analyzed after 4 hours) | polymorphic form of the solid up on analysis with XRD ([2]; water slurry at about room temperature for about 1 hour, first part filtered, filtered solid analyzed after 2 hour) | polymorphic form of the solid up on analysis with XRD ([2]; water slurry at about room temperature for about 1 hour, first part filtered, filtered solid analyzed after 4 hours) | polymorphic form of the solid up on analysis with XRD ([2]; water slurry, second part stirred over night at room temperature, then filtered) | polymorphic form conversion up on slurrying [3]
Cc1ccc(-n2nccn2)c(C(=O)N2CCN(c3nc4cc(Cl)ccc4o3)CC[C@H]2C)c1 [Suvorexant Form B, 5-chloro-2-{(5R)-5-methyl-4-[5-methyl-2-(2H-1,2,3-triazol-2-yl)benzoyl]-1,4-diazepan-1 yl}-1,3-benzoxazole] | Form B | Form B | Form B | Form B | Form B | –
Cc1ccc(-n2nccn2)c(C(=O)N2CCN(c3nc4cc(Cl)ccc4o3)CC[C@H]2C)c1 [Form A, 5-chloro-2-{(5R)-5-methyl-4-[5-methyl-2-(2H-1,2,3-triazol-2-yl)benzoyl]-1,4-diazepan-1 yl}-1,3-benzoxazole] | – | – | – | – | – | converted in to Form B
